Experimental data from patent publication US20110200527A1, “Peptide Ligand Directed Drug Delivery” (Shanghai Jiaotong University, priority 2007, published 2011).
In brackets after ≈: the same amount, converted by molar mass. Each block holds one molecule with its values, some of them ahead of it.

Legend:
H1299 cells = test: MTT cell killing assay, H1299; type: cell-based; settings: Homo sapiens, NCI-H1299, H1299, 2 hours exposure, then 48 hours growth, read-out: calculated IC50
Description: (§1) H1299 and SPCA1 cells were plated at the density of 10^4 cells/well in 96-well plates and grown overnight. […] The cells were then washed with fresh medium, and let grown for another 48 hours. The cell viabilities after different treatments were determined using a MTT assay (26).

SPCA1 cells = test: MTT cell killing assay, SPCA1; type: cell-based; settings: Homo sapiens, SPCA1, 2 hours exposure, then 48 hours growth, read-out: calculated IC50
Description: as §1

H-460 cells = test: FACS analysis of liposome binding by doxorubicin fluorescence; type: cell-based; settings: 0.01 to 10 μg/ml doxorubicin, FIG. 8
Description: H-460 cells were grown in cell culture plate under sterile conditions and harvested by scraping. The liposome samples (empty Thermodox liposome, ThermoDox, D4-ThermoDox, D4*-ThermoDox where D4 ThermoDox comprises SEQ ID NO:1 and D4*ThermoDox comprises SEQ ID NO:2) and doxorubicin hydrochloride were added and incubated at 37° C. with H-460 cells for 4 hours. Two different liposomes comprising different amounts of the peptide of the invention (D4-ThermoDox) were tested. The two liposomes were designated D4-ThermoDox2+2, which comprised DPPC:MSPC: DSPE-MPEG2000:D4-DSPE-MPEG2000 in a 90:10:2:2 molar ratio and D4-ThermoDox4+4, which comprised DPPC:MSPC: DSPE-MPEG2000:D4-DSPE-MPEG2000 in a 90:10:4:4 molar ratio. The D4*-ThermoDox comprised DPPC:MSPC: DSPE-MPEG2000:D4*-DSPE-MPEG2000 in a 90:10:2:2 molar ratio. After incubation, the cells were washed 4 times with PBS, and counted by FACS using doxorubicin fluorescence (excitation at 488 nm, and emission at 575 nm).
The following groups were examined: a. Non-treatment control; b. ThermoDox at approx. 0.01-10 μg (doxorubicin)/mL; c. D4-ThermoDox2+2 at approx. 0.01-10 μg (doxorubicin)/mL; d. D4-ThermoDox4+4 at approx. 0.01-10 μg (doxorubicin)/mL; e. D4*-ThermoDox at approx. 0.01-10 μg (doxorubicin)/mL; and f. doxorubicin hydrochloride 0.01-10 μg. […]

H1299 tumor bearing mice = test: In vivo fluorescence imaging of Cy5.5 labeled peptides; settings: tail vein injection, 1 to 6 hours after injection
Description: Both H1299 and SPCA1 xenograft mouse models were prepared by the animal experimental center of Shanghai Cancer Institute. They were used in the in vivo imaging experiments about 3˜4 weeks after tumor cell inoculation (tumor size about 5-7 mm diameter), and humanely sacrificed afterwards. The animal study protocols were approved by the Animal Study Committee of Shanghai Jiaotong University, School of Pharmacy.
At various time points afterwards, the mice were anesthetized and imaged with an Optix in vivo fluorescence imaging system (GE Healthcare). Excepted for the Cy5.5 dye only control, all the other groups contained at least 3 mice. The representative images from the same most representative mouse in each group were shown. The images had been processed using the fluorescence lifetime gating for Cy5.5 (0.8-1.1 ns) to remove most autofluorescent interferences.
Cy5.5 fluorescence distributions inside the mice were imaged at various time points after injection. In all groups including the free dye control, fluorescences were first seen all over the body, and then quickly afterwards in the kidney and bladder. […] But in LARLLT-Cy5.5 injected mice, between 1 to 6 hours after injection, fluorescence signals in the tumor tissue were much stronger, as compared to the surrounding tissues.

[1] = molecular target: epidermal growth factor receptor (EGFR) on EGFR high-expressing human lung cancer cells (H1299, SPCA1) (human, UniProt P00533 25-1210); test: cell-based or functional assay

Molecule: COc1cccc2c1C(=O)c1c(O)c3c(c(O)c1C2=O)C[C@@](O)(C(=O)CO)C[C@@H]3O[C@H]1C[C@H](N)[C@H](O)[C@H](C)O1 [free doxorubicin, doxorubicin]
IC50 (H1299 cells): 5.7 µg/mL (≈ 10.5 µM)
IC50 (SPCA1 cells): 2 µg/mL (≈ 3.68 µM)
doxorubicin uptake (mean fluorescence intensity) (H-460 cells): highest

fluorescence signal in the tumor region (H1299 tumor bearing mice): the same as background
Molecule: Cy5.5

B1: control peptide modified liposomes (scrambled peptide RTALLL conjugated to DSPE-PEG2000, inserted into preformed liposomes) (peptide)
peptide: RTALLL
modifications: peptide thiolated with SPDP, reduced with TCEP and coupled to the maleimide of DSPE-PEG2000-Mal; the lipid conjugate is inserted into liposomes
IC50 of cell killing (MTT), doxorubicin liposomes, H1299 cells [1]: 85 µg/mL
IC50 of cell killing (MTT), doxorubicin liposomes, SPCA1 cells [1]: 15 µg/mL
